{
  "source": "patent US20070197424A1",
  "about": "“Glatiramer acetate for use as an immuno-modulatory agent” (priority 2003, published 2007)",
  "key": {"splenocytes [1]": {"test_system": "splenocytes", "experiment": "FACS analysis of spleen cell populations in colitis-induced mice", "format": "in vivo, mouse", "procedure": "(§1) Following Ketamine/Xylazine anesthesia, animals were sacrificed, and serum, colons are harvested at day 12. Blood samples are obtained and frozen at −20° C. until assayed for cytokine levels (IL2, IL4, IFNg, IL10 and TGFb). Splenocyte subpopulations are analyzed by FACS for CD4 and CD8, NK markers, and killer inhibitory and activation receptors. Colons are assessed for inflammatory severity.\n(§2) Splenocyte isolation: Spleens were harvested at the time of sacrifice and fractionated through a 70-μm nylon cell strainer. After RBC lysis, splenocytes were washed, suspended in RPMI 1640 medium and stored at 4° C. until FACS analysis.\n(§3) Fluorescent-activated cell sorting analysis (FACS): splenocytes are analysed by direct immunofluorescence reactivity with a series of antibodies (Abs) using standard techniques on a Coulter flow cytometer (BECTON DICKINSON, USA). Briefly, 3×10^5 spleen cells are incubated for 30 minutes at 4° C. with Abs conjugated to fluorescein isothiocyanate (FITC), phycoerythrin (PE) or allophycocyanin (APC), washed three times, and resuspended in fixative solution with 2% paraformaldehyde for analysis. Antibodies used for staining splenocytes are monoclonal anti-mouse CD4, CD8 conjugated by PE and FITC respectively (BD Biosciences). For staining natural killer (NK) cells APC-conjugated rat anti-mouse CD49b/Pan-NK cells monoclonal antibody which identifies the majority of NK cells is used. For killer inhibitory receptors (iKIR) monoclonal mouse anti-mouse Ly-49C and Ly-49I conjugated by PE are used. For the killer activating receptor (aKIR) FITC-conjugated rat anti-mouse LY-49D monoclonal antibody were used. To defined the role of T regulatory cells we used the anti CD25 monoclonal antibodies. To identify lymphocytes staining with peridinin chlorophyll-α protein (Per-CP)-conjugated rat anti-mouse CD45 (BD Biosciences) was used. Lymphocyte subsets are presented as percentage of the CD45+ cells."}, "intrahepatic lymphocytes": {"test_system": "intrahepatic lymphocytes", "experiment": "FACS analysis of intrahepatic lymphocytes in CCl4-fibrosis induced mice", "format": "in vivo, mouse"}, "serum cytokines": {"test_system": "serum cytokines", "experiment": "Serum cytokine levels in colitis-induced mice", "format": "in vivo, mouse", "settings": "vs colitis-induced untreated group", "procedure": "as §1"}, "dendritic cells": {"test_system": "dendritic cells", "settings": "through modulation of dendritic cells; cited from earlier work"}, "skin and thyroid grafts": {"test_system": "skin and thyroid grafts", "settings": "cited from earlier work"}, "[2]": {"test_system": "relapsing-remitting multiple sclerosis", "settings": "cited from earlier work"}, "colitis-induced mice": {"test_system": "colitis-induced mice", "experiment": "TNBS-colitis in mice: macroscopic and microscopic colitis score", "format": "in vivo, mouse", "settings": "treated vs control colitis-induced mice", "procedure": "Each group includes 10 male animals.\nas §1\nColitis induction as inflammatory bowel disease animal model: TNBS-colitis was induced by rectal instillation of TNBS, 1 mg/mouse, dissolved in 100 μl of 50% ethanol as described [Trop S, Samsonov D, Gotsman I, Alper R, Diment J and Ilan Y (1999) Hepatology 29: 746-755].\n(§4) Liver and colon histology: The posterior one-third of the liver, the rectosigmoid colon were fixed in 10% formalin for 24 hours and then paraffin-embedded in an automated tissue processor. […] sections were cut from each animal specimen. Hematoxylin and eosin (H&E) staining was performed for each animal section."}, "splenocytes [3]": {"test_system": "splenocytes", "experiment": "FACS analysis of splenocytes in CCl4-fibrosis induced mice", "format": "in vivo, mouse", "settings": "for spleen CD4:CD8 ratio: vs CCl4-induced fibrosis untreated group, FIG. 7; for spleen total number of NK cells: vs untreated fibrotic and naive groups, FIG. 8", "procedure": "(§5) Hepatic fibrosis was induced by IP CCl4 administration for 6 weeks in 8 week-old male wild-type C57Bl/6 mice. Within the last 2 weeks animals were also treated with either Copaxone 200 microgram/day I.P (Group A), Linomycin given by drinking water 1 mg/ml (Group B) or normal saline (group C), and were compared to naïve mice (Group D). Eight animals were included in each group. Hepatic fibrosis was evaluated by Ishak Knodell score [Knodell, R. G. et al., Hepatology 1981; 1(5):431-5], hydroxyproline and by analyzing 36 Sirius Red stained histological liver sections per animal with Bioquant® morphometry system. Splenocytes were isolated for FACS analysis from all animal groups. The correlation between hepatic fibrosis and CD4, CD8, NK cells, iKIR and aKIR expression on splenocytes was assessed.\nas §2, §3"}, "[4]": {"test_system": "CCl4-fibrosis induced mice", "experiment": "CCl4-induced hepatic fibrosis in mice: liver injury and fibrosis assessment", "format": "in vivo, mouse", "settings": "for liver injury (Ishak injury score): CCl4 fibrosis-induced mice, treated vs untreated; for hepatic fibrosis (Ishak liver fibrosis scoring, Bioquant analysis): compared to the CCl4 fibrosis-induced untreated group, Copaxone 200 microgram/day I.P. or Linomycin 1 mg/ml drinking water, last 2 weeks of 6 weeks CCl4", "procedure": "as §5\nHepatic fibrosis animal model: Hepatic fibrosis was induced by IP CCl4 (10% as diluted with corn oil) administration 5 microliter/g body weight; for 4-6 weeks in 8 week-old male mice.\nas §4\nLiver sections (15 μm) were stained in 0.1% Sirius Red F3B in saturated picric acid (both from Sigma). Additionally, alpha smooth muscle actin immunohistochemistry was performed using the DAKO kit (CAT# U7033 EPOS, Monoclonal) according to the manufacturer's instructions.\nHepatic Fibrosis quantitation: Relative fibrosis area (expressed as a % of total liver area) was assessed by analyzing 36 Sirius red-stained liver sections per animal. Each field was acquired at 10× magnification and then analyzed using a computerized Bioquant® morphometry system. To evaluate the relative fibrosis area, the measured collagen area was divided by the net field area and then multiplied by 100. Subtraction of vascular lumenal area from the total field area yielded the final calculation of the net fibrosis area.\nAlpha smooth muscle actin immunoblot: Immunoblot analysis of Alpha-SMA in liver extracts is performed as previously described [de Waal Malefyt, R., et al., J. Exp. Med. 1991; 174:915-924] with modifications. Whole-liver protein extracts were prepared in liver homogenization buffer (50 mmol/L Tris-HCl [pH 7.6], 0.25% Triton-X 100, 0.15 M NaCl, 10 mM CaCl2 and complete mini EDTA-free protease inhibitor cocktail (Roche Diagnostics, Mannheim, Germany). Then proteins (30 μg per lane) were resolved on a 10% SDS-polyacrylamide gel under reducing conditions. For immunoblotting, proteins were transferred to a Protran membrane and incubated overnight at 4° C. in a blocking buffer containing 5% skim milk. Anti-SMA mouse monoclonal antibody (DAKO, cat# M0851) and peroxidase-conjugated goat anti-mouse IgG (P.A.R.I.S., Compiègne, France) and enhanced chemiluminescence were used."}, "[5]": {"test_system": "graft-specific T cell lines", "settings": "in vitro with stimulating allogeneic cells; cited from earlier work"}},
  "note": "Entries after “also recorded” stand apart in the source; their conditions may differ.",
  "data": [
    {"substance": "glatiramer acetate [Copaxone]", "values": [
      {"measurement": "CD4 IFN-γ secreting cells", "setting": "splenocytes [1]; colitis induced-Copaxone treated group, p<0.02, FIG. 16", "result": "increase"},
      {"measurement": "spleen CD4 cell number", "setting": "splenocytes [1]; colitis induced-Copaxone treated group, p<0.03, FIG. 15", "result": "significant increase"},
      {"measurement": "spleen CD8 cell populations", "setting": "splenocytes [1]; colitis-induced mice, FIG. 15", "result": "unaffected"},
      {"measurement": "antigen presenting cells (APC), spleen", "setting": "splenocytes [1]; colitis-induced mice, FIG. 17", "result": "seemed to be reduced"},
      {"measurement": "intrahepatic CD4 cells", "setting": "intrahepatic lymphocytes; between fibrotic groups A and C, FIG. 10", "result": "no significant changes"},
      {"measurement": "intrahepatic NK cells number", "setting": "intrahepatic lymphocytes; compared to fibrosis group C, p<0.0001, FIG. 12", "result": "significantly increased"},
      {"measurement": "intrahepatic CD8 cells", "setting": "intrahepatic lymphocytes; compared to group C, p<0.001, FIG. 10", "result": "significantly decreased"},
      {"measurement": "intrahepatic CD4:CD8 ratio", "setting": "intrahepatic lymphocytes; compared to group C, p<0.002, FIG. 11", "result": "significantly elevated"},
      {"measurement": "serum IL-10 level", "setting": "serum cytokines; p<0.002, FIG. 18", "result": "significantly reduced"},
      {"measurement": "serum IL-4 level", "setting": "serum cytokines; p<0.004, FIG. 18", "result": "significantly reduced"},
      {"measurement": "serum IFN-γ level", "setting": "serum cytokines; p<0.006, FIG. 18", "result": "significantly reduced"},
      {"measurement": "IL-10 production", "setting": "dendritic cells", "result": "increase"},
      {"measurement": "Th2 CD4 cell development", "setting": "dendritic cells", "result": "promote"},
      {"measurement": "skin graft survival", "setting": "skin and thyroid grafts; skin grafting assay", "result": "prolonged"},
      {"measurement": "functional deterioration of thyroid grafts", "setting": "skin and thyroid grafts; thyroid grafting assay", "result": "inhibited"},
      {"measurement": "disease activity and burden of disease (MRI measures)", "setting": "[2]; European/Canadian study", "result": "significantly decrease"},
      {"measurement": "tolerability", "setting": "[2]; human, in vivo", "result": "generally well tolerated"},
      {"measurement": "overall disability status", "setting": "[2]; patients with RRMS", "result": "significantly improved"},
      {"measurement": "efficacy by relapse rate, proportion of relapse-free patients, number of gadolinium-enhancing lesions", "setting": "[2]; subcutaneous 20 mg/day, patients with RRMS", "result": "significantly effective"},
      {"measurement": "macroscopic colitis score (tissue injury)", "setting": "colitis-induced mice; FIG. 13a", "result": "prominent reduction"},
      {"measurement": "microscopic colitis score (tissue injury)", "setting": "colitis-induced mice; FIG. 13b, p<0.03", "result": "prominent reduction"},
      {"measurement": "spleen CD4 cells", "setting": "splenocytes [3]; between fibrotic groups A, B and C, FIG. 6", "result": "no significant changes"},
      {"measurement": "spleen CD8 cells", "setting": "splenocytes [3]; compared to group C (p<0.05) or D (p<0.005), FIG. 6", "result": "significantly decreased"},
      {"measurement": "spleen NK aKIR:NK iKIR ratio", "setting": "splenocytes [3]; compared to the naive group (group D), p<0.0001, FIG. 9", "result": "significant increase"},
      {"measurement": "spleen NK aKIR:NK iKIR ratio", "setting": "splenocytes [3]; compared to the untreated fibrotic group (group C), p<0.05, FIG. 9", "result": "significantly lower"},
      {"measurement": "spleen CD4:CD8 ratio", "setting": "splenocytes [3]", "result": "increased; also recorded: significantly elevated"},
      {"measurement": "spleen CD4:CD8 ratio", "setting": "splenocytes [3]; listed as A", "result": "significantly elevated"},
      {"measurement": "spleen total number of NK cells", "setting": "splenocytes [3]", "result": "elevated"},
      {"measurement": "spleen total number of NK cells", "setting": "splenocytes [3]; listed as A", "result": "increased number"},
      {"measurement": "anti-fibrotic effect in the animal model", "setting": "[4]; CCl4 fibrosis mouse model, overall conclusion", "result": "significant anti-fibrotic effect"},
      {"measurement": "liver injury (Ishak injury score)", "setting": "[4]; listed as Glatiramer acetate", "result": "reduced liver injury"},
      {"measurement": "liver injury (Ishak injury score)", "setting": "[4]; listed as copaxon", "result": "no significant difference"},
      {"measurement": "liver injury (Ishak injury score)", "setting": "[4]; listed as glatiramer acetate", "result": "significantly lower"},
      {"measurement": "fibrosis severity, % of collagen in the analyzed area", "setting": "[4]; after CCl4 fibrosis induction, p<0.0001, FIG. 4", "result": "significantly reduced"},
      {"measurement": "hepatic fibrosis (Ishak liver fibrosis scoring, Bioquant analysis)", "setting": "[4]", "result": "significant reduction of fibrosis"},
      {"measurement": "hepatic fibrosis (Ishak liver fibrosis scoring, Bioquant analysis)", "setting": "[4]; listed as glatiramer acetate", "result": "significantly lower"},
      {"measurement": "alpha smooth muscle actin amounts (Western blot, liver)", "setting": "[4]; vs CCl4 animal group, FIG. 5", "result": "significantly reduced"},
      {"measurement": "interleukin-2 and interferon-gamma secretion of graft-specific T cell lines", "setting": "[5]", "result": "inhibited"},
      {"measurement": "proliferation of graft-specific T cell lines", "setting": "[5]", "result": "inhibited"}
    ]}
  ]
}
